Biological target: T1, LXRβ (Homo sapiens, UniProt P55055)
T1 construct: Co-transfection expression plasmids, comprising full-length LXRα (pCMX-h LXRα or LXRβ (pCMX-hLXRβ)); expressed in transfected cells; host or cells: CV-1 African green monkey kidney cells, transient transfection with pCMX-hLXRβ
T1 sequence (P55055 1-460): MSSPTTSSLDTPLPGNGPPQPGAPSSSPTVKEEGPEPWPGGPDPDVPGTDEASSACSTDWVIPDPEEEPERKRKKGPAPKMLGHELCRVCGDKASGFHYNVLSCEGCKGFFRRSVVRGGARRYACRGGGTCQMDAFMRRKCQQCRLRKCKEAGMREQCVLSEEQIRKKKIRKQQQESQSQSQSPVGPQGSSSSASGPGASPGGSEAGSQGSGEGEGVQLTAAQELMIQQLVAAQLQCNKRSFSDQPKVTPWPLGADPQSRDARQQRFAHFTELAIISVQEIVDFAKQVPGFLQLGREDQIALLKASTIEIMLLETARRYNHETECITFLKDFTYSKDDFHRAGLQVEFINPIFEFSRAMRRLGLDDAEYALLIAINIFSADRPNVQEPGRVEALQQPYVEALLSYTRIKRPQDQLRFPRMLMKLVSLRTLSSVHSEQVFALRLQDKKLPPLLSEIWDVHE
T1 sequence (P19793 1-462 partner): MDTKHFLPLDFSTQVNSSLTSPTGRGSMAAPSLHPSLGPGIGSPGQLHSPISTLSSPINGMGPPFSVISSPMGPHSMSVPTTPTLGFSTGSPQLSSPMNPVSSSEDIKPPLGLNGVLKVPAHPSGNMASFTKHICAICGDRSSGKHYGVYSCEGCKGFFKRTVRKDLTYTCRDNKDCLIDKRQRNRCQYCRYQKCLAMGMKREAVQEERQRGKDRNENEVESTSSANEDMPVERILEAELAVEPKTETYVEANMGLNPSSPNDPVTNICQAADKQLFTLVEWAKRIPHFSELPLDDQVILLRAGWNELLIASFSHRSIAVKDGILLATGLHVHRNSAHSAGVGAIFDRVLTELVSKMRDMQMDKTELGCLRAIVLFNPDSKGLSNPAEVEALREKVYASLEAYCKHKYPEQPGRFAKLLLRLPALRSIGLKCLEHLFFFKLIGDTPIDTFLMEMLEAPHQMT
Experiment: LXR/LXRE co-transfection assay (luciferase reporter) in CV-1 cells, LXRβ
Assay type: cell-based
Settings: for EC50: CV-1 cells transfected with pCMX-hLXRβ and LXREx1-Tk-Luciferase, 20 hours incubation, read-out: LXRbeta agonism EC50; for Emax: CV-1 cells, relative to maximum response of high control N-(3-((4-fluorophenyl)-(naphthalene-2-sulfonyl)amino)propyl)-2,2-dimethylpropionamide, read-out: LXRbeta % EFFICACY
In short: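 CV-1 cells transiently co-transfected with full-length human LXRβ, LXRE-Tk-luciferase reporter and β-galactosidase control, then exposed to compound (≤0.5% DMSO) for 20 h at 37 °C before luminescence read. EC50 from 10-point, half-log dose curves; efficacy relative to the sulfonamide high control, means of 2–3 experiments.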

Row | Structure (SMILES) | EC50 | Emax
1 | Cc1cc(C(F)(F)F)nn1-c1ccc(-c2cc(Cl)c(CO)c(S(C)(=O)=O)c2)cc1-n1nncc1-c1ccc(OC(F)(F)F)cc1 [Example 302, [3-chloro-5-(methylsulfonyl)-4′-[5-methyl-3-(trifluoromethyl)-1H-pyrazol-1-yl]-3′-(5-{4-[(trifluoromethyl)oxy]phenyl}-1H-1,2,3-triazol-1-yl)biphenyl-4-yl]methanol] | 227 nM | 93%
2 | Cc1cc(C(F)(F)F)nn1-c1ccc(-c2cccc(C(C)(C)C(N)=O)c2)cc1-n1nncc1-c1ccc(OC(F)(F)F)cc1 [Example 303, 2-methyl-2-{4′-[5-methyl-3-(trifluoromethyl)-1H-pyrazol-1-yl]-3′-(5-{4-[(trifluoromethyl)oxy]phenyl}-1H-1,2,3-triazol-1-yl)biphenyl-3-yl}propanamide] | 825 nM | 102%
3 | Cc1cc(C(C)(F)F)nn1-c1ccc(-c2cccc(S(C)(=O)=O)c2)cc1-n1nncc1-c1ccc(OC(F)(F)F)cc1 [Example 304, 1-{4-[3-(1,1-difluoroethyl)-5-methyl-1H-pyrazol-1-yl]-3′-(methylsulfonyl)biphenyl-3-yl}-5-{4-[(trifluoromethyl)oxy]phenyl}-1H-1,2,3-triazole] | 2860 nM | 26%
4 | Cc1cc(C(C)(F)F)nn1-c1ccc(-c2cc(F)c(CO)c(S(C)(=O)=O)c2)cc1-n1nncc1-c1ccc(OC(F)(F)F)cc1 [Example 305, {4′-[3-(1,1-difluoroethyl)-5-methyl-1H-pyrazol-1-yl]-3-fluoro-5-(methylsulfonyl)-3′-(5-{4-[(trifluoromethyl)oxy]phenyl}-1H-1,2,3-triazol-1-yl)biphenyl-4-yl}methanol] | 2040 nM | 45%
5 | Cc1cc(C(C)(F)F)n(-c2ccc(-c3cccc(S(C)(=O)=O)c3)cc2-n2nncc2-c2ccc(OC(F)(F)F)cc2)n1 [Example 306, 1-{4-[5-(1,1-difluoroethyl)-3-methyl-1H-pyrazol-1-yl]-3′-(methylsulfonyl)biphenyl-3-yl}-5-{4-[(trifluoromethyl)oxy]phenyl}-1H-1,2,3-triazole] | 203 nM | 71%
6 | Cc1cc(C(F)(F)F)nn1-c1ccc(-c2cccc(S(C)(=O)=O)c2)cc1-c1ocnc1-c1ccc(OC(F)(F)F)cc1 [Example 307, 5-{3′-(methylsulfonyl)-4-[5-methyl-3-(trifluoromethyl)-1H-pyrazol-1-yl]biphenyl-3-yl}-4-{4-[(trifluoromethyl)oxy]phenyl}-1,3-oxazole] | 91 nM | 98%
7 | Cc1nc(-c2ccc(OC(F)(F)F)cc2)c(-c2cc(-c3cccc(S(C)(=O)=O)c3)ccc2-n2ccc(C(N)=O)n2)o1 [Example 308, 1-(3-(2-methyl-4-(4-(trifluoromethoxy)phenyl)oxazol-5-yl)-3′-(methylsulfonyl)biphenyl-4-yl)-1H-pyrazole-3-carboxamide] | 1650 nM | 29%
8 | Cc1nc(-c2ccc(OC(F)(F)F)cc2)c(-c2cc(-c3cccc(S(C)(=O)=O)c3)ccc2-n2ccc(C(F)(F)F)n2)o1 [Example 309, 2-methyl-5-(3′-(methylsulfonyl)-4-(3-(trifluoromethyl)-1H-pyrazol-1-yl)-[1,1′-biphenyl]-3-yl)-4-(4-(trifluoromethoxy)phenyl)oxazole] | 120 nM | 68%
9 | Cc1nc(-c2cc(-c3cccc(S(C)(=O)=O)c3)ccc2-n2cc(Cl)c(C(F)(F)F)n2)c(-c2ccc(OC(F)(F)F)cc2)o1 [Example 310, 4-(4-(4-chloro-3-(trifluoromethyl)-1H-pyrazol-1-yl)-3′-(methylsulfonyl)-[1,1′-biphenyl]-3-yl)-2-methyl-5-(4-(trifluoromethoxy)phenyl)oxazole] | 27 nM | 75%
10 | CCOc1cc(C(F)(F)F)nn1-c1ccc(-c2cccc(S(C)(=O)=O)c2)cc1-c1nc(C)oc1-c1ccc(OC(F)(F)F)cc1 [Example 311, 4-(4-(5-ethoxy-3-(trifluoromethyl)-1H-pyrazol-1-yl)-3′-(methylsulfonyl)biphenyl-3-yl)-2-methyl-5-(4-(trifluoromethoxy)phenyl)oxazole] | 798 nM | 37%
11 | Cc1nc(-c2cc(-c3cccc(S(C)(=O)=O)c3)ccc2-n2nc(C(F)(F)F)cc2C2CC2)c(-c2ccc(OC(F)(F)F)cc2)o1 [Example 312, 4-(4-(5-cyclopropyl-3-(trifluoromethyl)-1H-pyrazol-1-yl)-3′-(methylsulfonyl)biphenyl-3-yl)-2-methyl-5-(4-(trifluoromethoxy)phenyl)oxazole] | 798 nM | 34%
12 | Cc1nc(-c2ccc(OC(F)(F)F)cc2)c(-c2cc(-c3cc(F)c(CO)c(S(C)(=O)=O)c3)ccc2-n2ccc(C(C)(F)F)n2)o1 [Example 313, (4′-(3-(1,1-difluoroethyl)-1H-pyrazol-1-yl)-3-fluoro-3′-(2-methyl-4-(4-(trifluoromethoxy)phenyl)oxazol-5-yl)-5-(methylsulfonyl)-[1,1′-biphenyl]-4-yl)methanol] | 20 nM | 59%
13 | Cc1nc(-c2ccc(OC(F)(F)F)cc2)c(-c2cc(-c3cnc(CO)c(S(C)(=O)=O)c3)ccc2-n2cc(Cl)c(C(F)(F)F)n2)o1 [Example 314, (5-(4-(4-chloro-3-(trifluoromethyl)-1H-pyrazol-1-yl)-3-(2-methyl-4-(4-(trifluoromethoxy)phenyl)oxazol-5-yl)phenyl)-3-(methylsulfonyl)pyridin-2-yl)methanol] | 11 nM | 68%
14 | Cc1nc(-c2ccc(OC(F)(F)F)cc2)c(-c2cc(-c3cc(F)c(CO)c(S(C)(=O)=O)c3)ccc2-n2ccc(C3CC3)n2)o1 [Example 315, (4′-(3-cyclopropyl-1H-pyrazol-1-yl)-3-fluoro-3′-(2-methyl-4-(4-(trifluoromethoxy)phenyl)oxazol-5-yl)-5-(methylsulfonyl)-[1,1′-biphenyl]-4-yl)methanol] | 70 nM | 48%
15 | Cc1nc(-c2ccc(OC(F)(F)F)cc2)c(-c2cc(-c3cccc(S(C)(=O)=O)c3)ccc2-n2ccc(C(C)(C)O)n2)o1 [Example 316, 2-(1-(3-(2-methyl-4-(4-(trifluoromethoxy)phenyl)oxazol-5-yl)-3′-(methylsulfonyl)biphenyl-4-yl)-1H-pyrazol-3-yl)propan-2-ol] | 293 nM | 24%
16 | Cc1nc(-c2ccc(OC(F)(F)F)cc2)c(-c2cc(-c3cc(F)c(CO)c(S(C)(=O)=O)c3)ccc2-n2ccc(C(C)(C)O)n2)o1 [Example 317, 2-(1-(3′-fluoro-4′-(hydroxymethyl)-3-(2-methyl-4-(4-(trifluoromethoxy)phenyl)oxazol-5-yl)-5′-(methylsulfonyl)biphenyl-4-yl)-1H-pyrazol-3-yl)propan-2-ol] | 92 nM | 27%
17 | Cc1nc(-c2ccc(OC(F)(F)F)cc2)c(-c2cc(-c3cccc(S(C)(=O)=O)c3)ccc2-n2ccc(C#N)n2)o1 [Example 318, 1-(3-(2-methyl-4-(4-(trifluoromethoxy)phenyl)oxazol-5-yl)-3′-(methylsulfonyl)biphenyl-4-yl)-1H-pyrazole-3-carbonitrile] | 246 nM | 84%
18 | Cc1nc(-c2ccc(OC(F)(F)F)cc2)c(-c2cc(-c3cc(F)c(CO)c(S(C)(=O)=O)c3)ccc2-n2ccc(C#N)n2)o1 [Example 319, 1-(3′-fluoro-4′-(hydroxymethyl)-3-(2-methyl-4-(4-(trifluoromethoxy)phenyl)oxazol-5-yl)-5′-(methylsulfonyl)biphenyl-4-yl)-1H-pyrazole-3-carbonitrile] | 71 nM | 80%
